Assay results reported in PMC9050923, “6,N^2-Diaryl-1,3,5-triazine-2,4-diamines: synthesis, antiproliferative activity and 3D-QSAR modeling” (RSC Advances, 2020).
Where two headings read alike, the source gives them in different places.

How the values were obtained:
Format in all cases: cell-based
[1] = test system: MCF-10A; test: MTT assay, MCF-10A normal breast cells; conditions: Homo sapiens, 72 h, read-out: GI50 (μM) ± SEM MCF-10A
Experimental: All the compounds, selected for determination of GI50 values against MDA-MB231 cells, were also used for the experiments with MCF-10A normal breast cells.
(§1) The cytotoxic activity of 6,N^2-diaryl-1,3,5-triazine-2,4-diamines (1–126) was evaluated against three breast carcinoma cell lines (MDA-MB231, SKBR-3, and MCF-7) and normal breast cell line (MCF-10A) by MTT assay.[22] All cells were obtained from the American Type Culture Collection and were grown in 10% fetal bovine serum and 1% pen-strep antibiotic supplemented media (DMEM for MDA-MB231 and SKBR-3, RPMI for MCF-7, and MEGM for MCF-10A). For MTT assay, 20 000 to 75 000 cells per mL (based on the doubling time for each cell line) were seeded in 96 well plates and incubated for 24 h at 37 °C in 5% CO2 incubator. Then, compounds at different concentrations were added followed by the incubation at 37 °C for 72 h. After that, MTT solution (0.5 mg mL^−1) was added and the plates were incubated for another 4 h. The supernatant was then discarded and 100 μL of DMSO was added to each well. The plates were then read by Tecan NanoQuant (model: infinite m200 pro) plate reader and absorbance was measured at 570 nm. GI50 values were calculated using sigmoidal concentration–response curves (see ESI ^†) generated using the GraphPad Prism 7 program. Three independent experiments were carried out and the data were represented as mean of the three experiments.

[2] = test system: MCF-7; test: MTT assay, MCF-7 breast cancer cells; conditions: for viability at 10 µM / GI50: Homo sapiens; for viability at 10 µM: MCF7, 10 μM, read-out: Percentage of cell viability MCF-7; for GI50: MCF7, 72 h, mean of three independent experiments ± SEM
Experimental: (§2) The prepared compounds 1–126 were tested on three breast cancer cell lines namely, MDA-MB231, SKBR-3 and MCF-7 using MTT assay. SKBR-3 and MCF-7 cell lines are estrogen and progesterone hormone positive cell lines often used as a model for the hormone therapy.[18] MDA-MB231 is triple negative breast cancer cell line, which is negative to estrogen and progesterone receptors and human epidermal growth factor receptor 2, a perfect model for chemotherapy.[18] Initially, all the prepared compounds 1–126 were tested on these three cancer cell lines at the screening concentration (10 μM) and percentage of cell viability was calculated 72 h after the treatment (Table 1).
(§3) The growth inhibitory effect of the compounds was determined on breast tumor cell line (MDA-MB231, SKBR-3 and MCF-7) at different concentrations with methotrexate and nilotinib as positive controls (Table 2).
as §1

[3] = test system: SKBR-3; test: MTT assay, SKBR-3 breast cancer cells; conditions: for viability at 10 µM / GI50: Homo sapiens, SK-BR-3; for viability at 10 µM: read-out: Percentage of cell viability SKBR-3; for GI50: 72 h, mean of three independent experiments ± SEM
Experimental: as §2, §3, §1

[4] = test system: MDA-MB231; test: MTT assay, MDA-MB231 breast cancer cells; conditions: for viability at 10 µM / GI50: Homo sapiens, MDA-MB-231; for viability at 10 µM: read-out: Percentage of cell viability MDA-MB231
Experimental: as §2, §3, §1

[5] = 72 h after the treatment, mean of three independent experiments
[6] = 10 μM, 72 h after the treatment, MTT, mean of three independent experiments
[7] = 72 h, MTT, mean of three independent experiments ± SEM, read-out: GI50 (μM) ± SEM MDA-MB231
[8] = −log[GI50], MDA-MB231, read-out: Experimental pGI50 (converted)

Row | Compound | GI50 [1] [µM] | viability at 10 µM [2, 5] [%] | GI50 [2] [µM] | viability at 10 µM [3, 6] [%] | GI50 ([3]; MTT) [µM] | viability at 10 µM [4, 6] [%] | GI50 [4, 7] [µM] | GI50 [4, 8] [µM] | activity against SKBR-3 cells (in words) ([3]; SAR discussion, compared with MDA-MB231) | Percentage of cell viability MCF-7 ([2]; 10 μM, 72 h after the treatment, mean of three independent experiments) [%] | Percentage of cell viability SKBR-3 [3, 6] [%] | Percentage of cell viability MDA-MB231 [4, 6] [%]
1 | Nc1nc(Nc2ccc(F)cc2)nc(-c2cccc(F)c2)n1 [Compound 14] | > 25 | 78 | > 20 | 100 | > 20 | 50 | 9.21 ± 0.38 | 9.12 | – | – | – | –
2 | Nc1nc(Nc2ccc(Br)cc2)nc(-c2cccc(F)c2)n1 [Compound 16] | > 25 | 80 | > 20 | 89 | 17.2 ± 1.07 | 43 | 13.1 ± 0.91 | 13.2 | – | – | – | –
3 | Cc1ccc(Nc2nc(N)nc(-c3cccc(F)c3)n2)cc1 [Compound 17] | > 25 | 71 | > 20 | 90 | > 20 | 29 | 3.96 ± 0.17 | 3.98 | – | – | – | –
4 | COc1ccc(Nc2nc(N)nc(-c3cccc(F)c3)n2)cc1 [Compound 18] | > 25 | 76 | > 20 | 74 | 16.6 ± 1.38 | 46 | 6.18 ± 0.43 | 6.17 | – | – | – | –
5 | Nc1nc(Nc2ccc(OC(F)(F)F)cc2)nc(-c2cccc(F)c2)n1 [Compound 19] | > 25 | 76 | 18.2 ± 1.28 | 100 | > 20 | 50 | 8.56 ± 0.59 | 8.51 | – | – | – | –
6 | Nc1nc(Nc2ccc(F)cc2)nc(-c2ccc(Cl)cc2)n1 [Compound 36] | > 25 | 100 | > 20 | 98 | 19.4 ± 2.39 | 49 | 14.1 ± 1.52 | 14.1 | – | – | – | –
7 | Cc1ccc(Nc2nc(N)nc(-c3cccc(C)c3)n2)cc1 [Compound 56] | > 25 | 67 | > 20 | 62 | 1.26 ± 0.18 | 12 | 0.17 ± 0.02 | 0.17 | – | – | – | –
8 | Cc1cccc(-c2nc(N)nc(Nc3ccc(OC(F)(F)F)cc3)n2)c1 [Compound 58] | > 25 | 73 | > 20 | 100 | > 20 | 50 | 15.2 ± 1.01 | 15.1 | – | – | – | –
9 | Cc1ccc(-c2nc(N)nc(Nc3ccccc3F)n2)cc1 [Compound 61] | > 25 | 73 | > 20 | 79 | > 20 | 50 | 12.2 ± 1.15 | 12.3 | – | – | – | –
10 | Cc1ccc(-c2nc(N)nc(Nc3ccc(F)cc3)n2)cc1 [Compound 62] | > 25 | 100 | 20.2 ± 1.95 | 78 | > 20 | 48 | 10.7 ± 0.73 | 10.7 | – | – | – | –
11 | COc1ccc(-c2nc(N)nc(Nc3ccccc3F)n2)cc1 [Compound 70] | > 25 | 63 | > 20 | 46 | > 20 | 9 | 0.32 ± 0.04 | 0.324 | – | – | – | –
12 | COc1ccc(-c2nc(N)nc(Nc3ccccc3Cl)n2)cc1 [Compound 73] | > 25 | 84 | > 20 | 47 | 1.1 ± 0.01 | 10 | 0.23 ± 0.03 | 0.229 | equipotent | – | – | –
13 | COc1ccc(-c2nc(N)nc(Nc3cccc(Cl)c3)n2)cc1 [Compound 74] | > 25 | 86 | 18.3 ± 1.11 | 45 | 0.18 ± 0.04 | 22 | 1.33 ± 0.17 | 1.32 | – | – | – | –
14 | COc1ccc(-c2nc(N)nc(Nc3cccc(C)c3)n2)cc1 [Compound 77] | > 25 | 79 | > 20 | 40 | 3.38 ± 0.36 | 22 | 0.95 ± 0.04 | 0.955 | – | – | – | –
15 | COc1ccc(-c2nc(N)nc(Nc3ccccc3OC)n2)cc1 [Compound 78] | > 25 | 57 | > 20 | 66 | 2.15 ± 0.12 | 50 | 13.2 ± 0.93 | 13.2 | – | – | – | –
16 | COc1ccc(-c2nc(N)nc(Nc3cccnc3)n2)cc1 [Compound 81] | > 25 | 91 | > 20 | 77 | 15.6 ± 1.06 | 46 | 14 ± 1.33 | – | – | – | – | –
17 | COc1ccccc1Nc1nc(N)nc(-c2ccc(OC(F)(F)F)cc2)n1 [Compound 95] | > 25 | 88 | > 20 | 81 | > 20 | 46 | 12.8 ± 0.76 | 12.9 | – | – | – | –
18 | Nc1nc(Nc2cccnc2)nc(-c2ccc(OC(F)(F)F)cc2)n1 [Compound 99] | > 25 | 85 | > 20 | 81 | > 20 | 33 | 11.5 ± 1.51 | 11.5 | – | – | – | –
19 | CN(C)c1ccc(-c2nc(N)nc(Nc3ccccc3)n2)cc1 [Compound 100] | > 25 | 80 | > 20 | 61 | 4.19 ± 0.37 | 21 | 0.36 ± 0.07 | 0.363 | – | – | – | –
20 | CN(C)c1ccc(-c2nc(N)nc(Nc3ccccc3F)n2)cc1 [Compound 101] | > 25 | 88 | > 20 | 51 | 0.29 ± 0.04 | 28 | 0.06 ± 0.001 | 0.0603 | – | – | – | –
21 | CN(C)c1ccc(-c2nc(N)nc(Nc3ccc(F)cc3)n2)cc1 [Compound 102] | > 25 | 90 | > 20 | 88 | > 20 | 32 | 7.2 ± 0.94 | 7.24 | – | – | – | –
22 | COc1ccccc1Nc1nc(N)nc(-c2ccc(N(C)C)cc2)n1 [Compound 103] | > 25 | 88 | > 20 | 48 | 3.63 ± 0.23 | 28 | 4.17 ± 0.33 | 4.17 | – | – | – | –
23 | Nc1nc(Nc2ccccc2)nc(-c2ccc(OCc3ccccc3)cc2)n1 [Compound 110] | > 25 | 100 | > 20 | 75 | > 20 | 51 | 13.4 ± 1.18 | 13.5 | – | – | – | –
24 | Nc1nc(Nc2ccc(Br)cc2)nc(-c2cccs2)n1 [Compound 120] | > 25 | 88 | > 20 | 87 | > 20 | 46 | 11.7 ± 1.39 | 11.7 | – | – | – | –
25 | Cc1ccc(Nc2nc(N)nc(-c3cccs3)n2)cc1 [Compound 121] | > 25 | 97 | > 20 | 95 | > 20 | 49 | 13.9 ± 1.74 | 13.8 | – | – | – | –
26 | N ^2-(4-Methoxyphenyl)-6-(4-methylphenyl)-1,3,5-triazine-2,4-diamine [Compound 65] | – | – | – | – | – | – | – | – | – | 87 | 88 | 97
